11 compounds from patent US7179840B2, “Furancarboxamides” (Bayer CropScience AG, priority 2002, dated 2007) can be followed below.

For orientation: chromatographic logP means a lipophilicity value derived from retention on a column.

Molecules are shown by their SMILES.

Data set [1] is described as follows: logP determination by HPLC (reversed-phase C18), acidic range. Particulars: pH 2.3, C18, 43° C., 0.1% aqueous phosphoric acid/acetonitrile. It counts as physicochemical. Here is the method:
The logP values given in the Preparation Examples were determined in accordance with EEC Directive 79/831 Annex V.A8 by HPLC (High Performance Liquid Chromatography) using a reversed-phase column (C 18). Temperature: 43° C.
Mobile phases for the determination in the acidic range: 0.1% aqueous phosphoric acid, acetonitrile; linear gradient from 10% acetonitrile to 90% acetonitrile.
Calibration was carried out using unbranched alkan-2-ones (having 3 to 16 carbon atoms) with known logP values (determination of the logP values by the retention times using linear interpolation between two successive alkanones).

Data set [2] deals with Alternaria solani. Description: Alternaria Test (Tomato)/Protective. It counts as in vivo. Particulars: 48 h, protective, application rate 100 g/ha, evaluation 2 days after inoculation, read-out: Efficacy in %. Here is the method: Alternaria Test (Tomato)/Protective
(§1) To produce a suitable preparation of active compound, 1 part by weight of active compound is mixed with the stated amounts of solvent and emulsifier, and the concentrate is diluted with water to the desired concentration.
To test for protective activity, young tomato plants are sprayed with the preparation of active compound at the stated application rate. 1 day after the treatment, the plants are inoculated with an aqueous spore suspension of Alternaria solani. The plants are then placed in an incubation cabin at about 20° C. and 100% relative atmospheric humidity.
Evaluation is carried out 2 days after the inoculation. 0% means an efficacy which corresponds to that of the control, whereas efficacy of 100% means that no infection is observed.

For data set [3], the system named is Sphaerotheca fuliginea. Description: Sphaerotheca Test (Cucumber)/Protective. It counts as in vivo. The following applies: protective, application rate 750 g/ha, evaluation 7 days after inoculation. Here is the method:
Sphaerotheca Test (Cucumber)/Protective
as §1
To test for protective activity, young cucumber plants are sprayed with the preparation of active compound at the stated application rate. 1 day after the treatment, the plants are inoculated with a spore suspension of Sphaerotheca fuliginea. The plants are then placed in a greenhouse at 70% relative atmospheric humidity and temperature of 23° C.
(§2) Evaluation is carried out 7 days after the inoculation. 0% means an efficacy which corresponds to that of the control, whereas efficacy of 100% means that no infection is observed.

The subject of data set [4] is Venturia inaequalis. Description: Venturia Test (Apple)/Protective. It counts as in vivo. The following applies: 240 h, protective, application rate 100 g/ha, evaluation 10 days after inoculation, read-out: Efficacy in %. The method, then:
Venturia Test (Apple)/Protective
as §1
To test for protective activity, young plants are sprayed with the preparation of active compound at the stated application rate. After the spray coating has dried on, the plants are inoculated with an aqueous conidia suspension of the apple scab pathogen Venturia inaequalis and then remained in an incubation cabin at about 20° C. and 100% relative atmospheric humidity for 1 day.
The plants are then placed in a greenhouse at about 21° C. and a relative atmospheric humidity of about 90%.
(§3) Evaluation is carried out 10 days after the inoculation. 0% means an efficacy which corresponds to that of the control, whereas efficacy of 100% means that no infection is observed.

For data set [5], the system named is Podosphaera leucotricha. Put plainly: Podosphaera Test (Apple)/Protective. It is filed as in vivo. Particulars: 240 h, protective, application rate 100 g/ha, evaluation 10 days after inoculation, read-out: Efficacy in %. Here is the method: Podosphaera Test (Apple)/Protective
as §1
To test for protective activity, young plants are sprayed with the preparation of active compound at the stated application rate. After the spray coating has dried on, the plants are inoculated with an aqueous spore suspension of the apple mildew pathogen Podosphaera leucotricha. The plants are then placed in a greenhouse at about 23° C. and a relative atmospheric humidity of about 70%.
as §3

The test system of data set [6] is Pyrenophora teres. Description: Pyrenophora teres Test (Barley)/Protective. It counts as in vivo. Particulars: protective, application rate 500 g/ha, evaluation 7 days after inoculation. Here is the method: Pyrenophora teres Test (Barley)/Protective
as §1
To test for protective activity, young plants are sprayed with the preparation of active compound at the stated application rate. After the spray coating has dried on, the plants are sprayed with a conidia suspension of Pyrenophora teres. The plants remain in an incubation cabin at 20° C. and 100% relative atmospheric humidity for 48 h. The plants are then placed in a greenhouse at a temperature of about 20° C. and a relative atmospheric humidity of about 80%.
as §2

As for `Cc1occc1C(=O)Nc1ccccc1-c1ccc(Cl)cc1F` [Example 1, N-(4′-chloro-2′-fluoro-1,1′-biphenyl-2-yl)-2-methyl-3-furamide], the chromatographic logP in data set [1] (reversed-phase C18 HPLC column) is 3.38.
On to `Cc1occc1C(=O)Nc1ccccc1-c1ccc(Br)cc1` [Example 2], for which the pest or weed control at 100 g/ha in data set [2] and in data set [4] was 100% in each case. In data set [3], this compound had an Efficacy in % of 90%. The chromatographic logP in data set [1] worked out at 3.71.
Regarding `Cc1occc1C(=O)Nc1ccccc1-c1ccc(C(F)(F)F)cc1` [Example 3], the pest or weed control at 100 g/ha turned out to be 100% in data set [2], 100% in data set [4] and 93% in data set [5]. This compound showed an Efficacy in % in data set [3] of 100%. In data set [1], the chromatographic logP is 3.53.
Regarding `Cc1occc1C(=O)Nc1ccccc1-c1cccc(Cl)c1` [Example 4], the figures for the pest or weed control at 100 g/ha in data set [2], in data set [4] and in data set [5] were 98%, 100% and 100%, respectively. Further, in data set [3], the Efficacy in % was found to be 95%. In addition, in data set [1], the chromatographic logP came out at 3.58.
For the compound `Cc1occc1C(=O)Nc1ccccc1-c1ccc(OC(F)(F)F)cc1` [Example 5], the pest or weed control at 100 g/ha is 92% in data set [2], 100% in data set [4] and 93% in data set [5]. Further, the chromatographic logP in data set [1] came to 3.91.
For `CSc1ccc(-c2ccccc2NC(=O)c2ccoc2C)cc1` [Example 6], the pest or weed control at 100 g/ha in data set [2] amounted to 95%; in data set [4] it was 100%; in data set [5], 92%. In addition, in data set [1], the chromatographic logP amounted to 3.63.
For the compound `Cc1occc1C(=O)Nc1ccccc1-c1ccc(F)c(F)c1` [Example 8], the pest or weed control at 100 g/ha in data set [2] is 82%; in data set [4], 100%; in data set [5], 85%. The chromatographic logP in data set [1] was found to be 3.22.
On to `Cc1occc1C(=O)Nc1ccccc1-c1ccc(Cl)c(F)c1` [Example 9], for which the pest or weed control at 100 g/ha in data set [2] amounted to 100%; in data set [4], 100%; in data set [5] it was 97%. The compound further gave a chromatographic logP in data set [1] of 3.43.
`Cc1occc1C(=O)Nc1ccccc1-c1ccc(F)c(Cl)c1` [Example 10]: the pest or weed control at 100 g/ha in data set [2] was determined as 95%; in data set [4] it was 100%; in data set [5] it was 100%. The chromatographic logP in data set [1] was found to be 3.46.
As for `Cc1occc1C(=O)Nc1ccccc1-c1ccc(Cl)c(Cl)c1` [Example 15], the figures for the pest or weed control at 100 g/ha in data set [2], in data set [4] and in data set [5] were 96%, 100% and 100%, respectively. In data set [6], the Efficacy in % was determined as 90%. Further, the chromatographic logP in data set [1] was determined as 3.73.
For `Cc1occc1C(=O)Nc1ccccc1-c1cc(Cl)cc(Cl)c1` [Example 16], in data set [3], the Efficacy in % was determined as 90%. For the same compound, the chromatographic logP in data set [1] came out at 3.9.
